Source: PMC10584170, “Machine learning-based phenotypic imaging to characterise the targetable biology of Plasmodium falciparum male gametocytes for the development of transmission-blocking antimalarials” (PLOS Pathogens, 2023)
Where two headings read alike, the source gives them in different places.

Tests used:
[1] = tested on: P. falciparum female gametocytes; assay: P. falciparum Dual Gamete Formation Assay (PfDGFA), female readout (Pfs25-positive female gametes); assay type: cell-based, Plasmodium falciparum NF54; conditions: for Selectivity ratio F: HepG2 Tox50 versus female IC50; for Average inhibition female (%) / % inhibition female (individual replicates) R1 / % inhibition female (individual replicates) R3 / % inhibition female (individual replicates) R4 / inhibition at 2 µM: 24h preincubation with gametocytes; for IC50: PfDGFA, 24 h incubation with gametocytes before induction, female gamete readout, read-out: Female IC50; for HitlevelF: number of replicates with >50% inhibition in the female readout
Summary of the method: (§1)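 First, day-14 P. falciparum NF54 gametocytes receive compound for 24 h at 37°C in 1% O2/3% CO2. Next, ookinete medium with Cy3 anti-Pfs25 triggers gametogenesis at 28°C and male exflagellation is imaged. Finally, after 24 h in the dark, Cy3-labelled females are imaged.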

HepG2 cells = assay: HepG2 cytotoxicity counter-screen; conditions: cytotoxic activity against HepG2 cells
[2] = tested on: P. falciparum male gametocytes; assay: P. falciparum Dual Gamete Formation Assay (PfDGFA), male readout (exflagellation); assay type: cell-based, Plasmodium falciparum NF54; conditions: for Selectivity Ratio M: HepG2 Tox50 versus male IC50; for Average inhibition male (%) / % inhibition male (individual replicates) R1 / % inhibition male (individual replicates) R3 / % inhibition male (individual replicates) R4 / inhibition at 2 µM: 24h preincubation with gametocytes; for IC50: PfDGFA, 24 h incubation with gametocytes before induction, exflagellation readout, read-out: Male IC50; for HitlevelM: number of replicates with >50% inhibition in the male readout
Summary of the method: as §1

[3] = PfDGFA at 2µM, average of replicates
[4] = Plasmodium falciparum, 2µM, average of replicates, read-out: Average inhibition female (%)
[5] = Plasmodium falciparum, 2µM, replicate R1, read-out: % inhibition female (individual replicates) R1
[6] = Plasmodium falciparum, 2µM, replicate R2, read-out: % inhibition female (individual replicates) R2
[7] = Plasmodium falciparum, 2µM, replicate R3, read-out: % inhibition female (individual replicates) R3
[8] = Plasmodium falciparum, 2µM, replicate R4, read-out: % inhibition female (individual replicates) R4
[9] = Plasmodium falciparum, 2µM, average of replicates, read-out: Average inhibition male (%)
[10] = Plasmodium falciparum, 2µM, replicate R1, read-out: % inhibition male (individual replicates) R1
[11] = Plasmodium falciparum, 2µM, replicate R2, read-out: % inhibition male (individual replicates) R2
[12] = Plasmodium falciparum, 2µM, replicate R4, read-out: % inhibition male (individual replicates) R4

| SMILES | Selectivity ratio F [1] | Average inhibition female (%) [1, 3] [%] | % inhibition female (individual replicates) R1 ([1]; PfDGFA at 2µM, replicate R1) [%] | % inhibition female (individual replicates) R3 ([1]; PfDGFA at 2µM, replicate R3) [%] | % inhibition female (individual replicates) R4 ([1]; PfDGFA at 2µM, replicate R4) [%] | IC50 [1] [nM] | HitlevelF ([1]; 2µM) | Tox50 (HepG2 cells) [µM] | Selectivity Ratio M [2] | Average inhibition male (%) [2, 3] [%] | % inhibition male (individual replicates) R1 ([2]; PfDGFA at 2µM, replicate R1) [%] | IC50 [2] [nM] | Average inhibition female (%) ([1]; 2µM, average of replicates) | % inhibition female (individual replicates) R1 ([1]; 2µM, replicate R1) [%] | % inhibition female (individual replicates) R3 ([1]; 2µM, replicate R3) [%] | % inhibition female (individual replicates) R4 ([1]; 2µM, replicate R4) [%] | Average inhibition male (%) ([2]; 2µM, average of replicates) | % inhibition male (individual replicates) R1 ([2]; 2µM, replicate R1) [%] | % inhibition male (individual replicates) R3 ([2]; 2µM, replicate R3) [%] | % inhibition male (individual replicates) R4 ([2]; 2µM, replicate R4) [%] | further results |
| --- | --- | --- | --- | --- | --- | --- | --- | --- | --- | --- | --- | --- | --- | --- | --- | --- | --- | --- | --- | --- | --- |
| COc1cc2ccccc2c(OC)c1CNCCCCCCNCc1c(OC)cc2ccccc2c1OC.CS(=O)(=O)O [TCMDC-137843] | 0.88 | 38.4 | 31.9 | 18.8 | 37.8 | 4090 | 1 | 3.59 | 2.16 | 82.6 | 82.1 | 1660 | – | – | – | – | – | – | – | – | % inhibition male (individual replicates) R3 ([2]; PfDGFA at 2µM, replicate R3): 58.2%; % inhibition male (individual replicates) R4 ([2]; PfDGFA at 2µM, replicate R4): 98.9%; HitlevelM ([2]; 2µM): 4 |
| CCCCOc1c(CCNCCCCNCCc2cc(OC)c3ccccc3c2OCCCC)cc(OC)c2ccccc12.CS(=O)(=O)O [TCMDC-137848] | 2.45 | 42.4 | 32.5 | 23.0 | 45.3 | 1290 | 1 | 3.16 | 2.01 | 82.6 | 89.8 | 1570 | – | – | – | – | – | – | – | – | % inhibition male (individual replicates) R3 ([2]; PfDGFA at 2µM, replicate R3): 50.4%; % inhibition male (individual replicates) R4 ([2]; PfDGFA at 2µM, replicate R4): 92.9%; HitlevelM ([2]; 2µM): 4 |
| CS(=O)(=O)O.FC(F)(F)COc1ccc(CNCCCCCCNCc2ccc(OCC(F)(F)F)c3ccccc23)c2ccccc12 [TCMDC-137853] | 2.44 | – | – | – | – | 520 | – | 1.26 | 4.06 | – | – | 310 | 50.4 | 38.4 | 35.3 | 42.3 | 98.2 | 97.9 | 96.8 | 101.6 | – |
| COc1c(CCNCCCCNCCc2cc(Cl)c3ccccc3c2OC)cc(Cl)c2ccccc12.CS(=O)(=O)O [TCMDC-137869] | 2.39 | – | – | – | – | 1250 | – | 2.99 | 3.25 | – | – | 920 | 93.4 | 93.5 | 100.2 | 88.2 | 96.4 | 99.7 | 90.8 | 101.9 | – |
| Oc1cccc(CNCCCN(Cc2ccccc2)c2ccccc2)c1 [TCMDC-137875] | 1.79 | – | – | – | – | – | – | 13.84 | 13 | – | – | – | – | – | – | – | – | – | – | – | inhibition at 2 µM [1, 4]: 33.5%; inhibition at 2 µM [1, 5]: 43.5%; inhibition at 2 µM [1, 6]: 32%; inhibition at 2 µM [1, 7]: 28.3%; inhibition at 2 µM [1, 8]: 30.2%; IC50 ([1]; Plasmodium falciparum): 7740 nM; inhibition at 2 µM [2, 9]: 97.7%; inhibition at 2 µM [2, 10]: 96.8%; inhibition at 2 µM [2, 11]: 93.7%; inhibition at 2 µM [2, 12]: 103%; IC50 ([2]; Plasmodium falciparum): 1060 nM |
| CC(=NNC(=S)NCCc1ccccn1)c1ccccn1 [TCMDC-137895] | 2.26 | – | – | – | – | 510 | – | 1.15 | 2.92 | – | – | 390 | 79.8 | 58.7 | 98.6 | 74.6 | 93.4 | 86.5 | 96.2 | 94.6 | – |
| CN(CCCNCc1cccc2ccccc12)CCCNCc1cccc2ccccc12.Cl [TCMDC-137905] | 4.08 | 42.5 | 35.1 | 30.8 | 35.6 | 1460 | 1 | 5.94 | 6.46 | 87.5 | 87.4 | 920 | – | – | – | – | – | – | – | – | % inhibition male (individual replicates) R3 ([2]; PfDGFA at 2µM, replicate R3): 74.8%; % inhibition male (individual replicates) R4 ([2]; PfDGFA at 2µM, replicate R4): 93.6%; HitlevelM ([2]; 2µM): 4 |
| COCCCNC(=S)NN=C(C)c1ccccn1 [TCMDC-137907] | 1.2 | – | – | – | – | – | – | 0.48 | 1.14 | – | – | – | – | – | – | – | – | – | – | – | inhibition at 2 µM [1, 4]: 95.6%; inhibition at 2 µM [1, 5]: 95.7%; inhibition at 2 µM [1, 6]: 91.5%; inhibition at 2 µM [1, 7]: 100%; inhibition at 2 µM [1, 8]: 94.6%; IC50 ([1]; Plasmodium falciparum): 400 nM; inhibition at 2 µM [2, 9]: 100%; inhibition at 2 µM [2, 10]: 99.7%; inhibition at 2 µM [2, 11]: 100%; inhibition at 2 µM ([2]; Plasmodium falciparum, 2µM, replicate R3, read-out: % inhibition male (individual replicates) R3): 97.8%; inhibition at 2 µM [2, 12]: 103%; IC50 ([2]; Plasmodium falciparum): 420 nM |
| CN(CCCNCc1ccc2ccccc2c1)CCCNCc1ccc2ccccc2c1.Cl [TCMDC-137908] | 3.92 | – | – | – | – | 1050 | – | 4.12 | 8.05 | – | – | 510 | 40.6 | 36.9 | 42.1 | 30.7 | 96.1 | 95.1 | 92.7 | 98.2 | – |
| CCOc1cc(CNCCCCCCNCc2cc(OCC)c(OCC)c3ccccc23)c2ccccc2c1OCC.CS(=O)(=O)O [TCMDC-137939] | 0.94 | 45.9 | 31.3 | 12.7 | 67.3 | 2160 | 2 | 2.02 | 1.34 | 69.9 | 72.9 | 1510 | – | – | – | – | – | – | – | – | % inhibition male (individual replicates) R3 ([2]; PfDGFA at 2µM, replicate R3): 51.6%; % inhibition male (individual replicates) R4 ([2]; PfDGFA at 2µM, replicate R4): 76.9%; HitlevelM ([2]; 2µM): 4 |
| COc1cc2ccccc2cc1CCNCCCCNCCc1cc2ccccc2cc1OC.CS(=O)(=O)O [TCMDC-137944] | 1.14 | – | – | – | – | 3470 | – | 3.94 | 3.14 | – | – | 1260 | 77.7 | 77.0 | 80.9 | 77.1 | 96.6 | 97.3 | 93.0 | 97.4 | – |
| CCCOc1ccc(CCNCCCCNCCc2ccc(OCCC)c3ccccc23)c2ccccc12.CS(=O)(=O)O [TCMDC-137952] | 2.17 | – | – | – | – | 1370 | – | 2.96 | 3.16 | – | – | 940 | 89.4 | 87.3 | 99.5 | 93.9 | 93.9 | 96.8 | 100.0 | 100.7 | – |
| COc1ccc2c(OC)c(CNCCCCCCNCc3ccc4cc(OC)ccc4c3OC)ccc2c1.CS(=O)(=O)O [TCMDC-137953] | 2.26 | 35.6 | 27.7 | 6.7 | 49.3 | 1650 | 1 | 3.73 | 2 | 70.9 | 72.9 | 1870 | – | – | – | – | – | – | – | – | % inhibition male (individual replicates) R3 ([2]; PfDGFA at 2µM, replicate R3): 42.7%; % inhibition male (individual replicates) R4 ([2]; PfDGFA at 2µM, replicate R4): 88.9%; HitlevelM ([2]; 2µM): 3 |
